One block for each compound: values may come before it.
Experiments:
Water content by KF = type: physicochemical
Procedure: AMG 397 hydrate Form 7 was prepared by charging ˜4 g of AMG 397 with 1-propanol and then slurrying at 55° C. for 4 days. Isolated solids were subsequently dried under vacuum at 95-105° C. for 7 days. Water content by KF was 0.9% initially and 5.6% after equilibration at ambient conditions. DVS indicates variable water content to 0-12% based on environment.

[1] = Moisture sorption (DVS) profile; type: physicochemical
Procedure: Moisture Sorption: Moisture sorption data was collected using a VTI SGA 100 symmetrical vapor sorption analyzer. A sample size of approximately 5-10 mg was used in a platinum pan. Hygroscopicity was evaluated from 5 to 95% RH in increments of 5% RH. Data for adsorption and desorption cycles were collected. Equilibrium criteria were set at 0.001% weight change in 10 minutes with a maximum equilibration time of 180 minutes.

[2] = Bioavailability compared between crystalline forms; type: in vivo; conditions: relative to AMG 397 anhydrous form 4
[3] = Solubility compared between crystalline forms; type: physicochemical; conditions: relative to AMG 397 anhydrous form 4
[4] = Thermodynamic stability of solid form; type: physicochemical

water content by KF (Water content by KF; after equilibration at ambient conditions): 5.6%
water content by KF (Water content by KF; initially): 0.9%
variable water content (DVS) ([1]; based on environment): 0-12%
moisture sorption weight gain ([1]; by 95% relative humidity): 0-12%
variable water content (DVS) ([1]; moisture sorption profile): 0-12 % wt
Structure (SMILES): CO[C@]1(CN2CCN3CCCC[C@@H]3C2)/C=C/C[C@H](C)[C@@H](C)S(=O)(=O)NC(=O)c2ccc3c(c2)N(C[C@@H]2CC[C@H]21)C[C@@]1(CCCc2cc(Cl)ccc21)CO3 [hydrate form 7]

moisture sorption weight gain ([1]; 50-95% relative humidity): 10%
moisture sorption weight gain ([1]; between 0-50% relative humidity): 0.5%
moisture sorption weight gain ([1]; by 95% relative humidity): 10%
Structure (SMILES): CO[C@]1(CN2CCN3CCCC[C@@H]3C2)/C=C/C[C@H](C)[C@@H](C)S(=O)(=O)NC(=O)c2ccc3c(c2)N(C[C@@H]2CC[C@H]21)C[C@@]1(CCCc2cc(Cl)ccc21)CO3 [anhydrous form 6]

moisture sorption weight gain ([1]; by 95% relative humidity): ~6.4%
moisture sorption weight gain ([1]; by 95% relative humidity, listed as amorphous form of AMG 397): 6.4%
Structure (SMILES): CO[C@]1(CN2CCN3CCCC[C@@H]3C2)/C=C/C[C@H](C)[C@@H](C)S(=O)(=O)NC(=O)c2ccc3c(c2)N(C[C@@H]2CC[C@H]21)C[C@@]1(CCCc2cc(Cl)ccc21)CO3 [amorphous AMG 397]

moisture sorption weight gain ([1]; by 95% relative humidity): 1.9%
moisture sorption weight gain ([1]; by 95% relative humidity, listed as crystalline hydrate form 3 of AMG 397): ~1.9%
Structure (SMILES): CO[C@]1(CN2CCN3CCCC[C@@H]3C2)/C=C/C[C@H](C)[C@@H](C)S(=O)(=O)NC(=O)c2ccc3c(c2)N(C[C@@H]2CC[C@H]21)C[C@@]1(CCCc2cc(Cl)ccc21)CO3 [hydrate form 3]

bioavailability [2]: higher
solubility [3]: higher
moisture sorption weight gain ([1]; by 95% relative humidity): 3.3%
moisture sorption weight gain ([1]; by 95% relative humidity, listed as crystalline hydrate form 1 of AMG 397): ~3.3%
Structure (SMILES): CO[C@]1(CN2CCN3CCCC[C@@H]3C2)/C=C/C[C@H](C)[C@@H](C)S(=O)(=O)NC(=O)c2ccc3c(c2)N(C[C@@H]2CC[C@H]21)C[C@@]1(CCCc2cc(Cl)ccc21)CO3 [hydrate form 1]

moisture sorption weight gain ([1]; by 95% relative humidity): 3%
moisture sorption weight gain ([1]; by 95% relative humidity, listed as crystalline hydrate form 2 of AMG 397): ~3.0%
Structure (SMILES): CO[C@]1(CN2CCN3CCCC[C@@H]3C2)/C=C/C[C@H](C)[C@@H](C)S(=O)(=O)NC(=O)c2ccc3c(c2)N(C[C@@H]2CC[C@H]21)C[C@@]1(CCCc2cc(Cl)ccc21)CO3 [hydrate form 2]

thermodynamic stability of form [4]: thermodynamically stable form
moisture sorption weight gain ([1]; by 95% relative humidity): 4.5%
moisture sorption weight gain ([1]; by 95% relative humidity, listed as crystalline anhydrous form 4 of AMG 397): ~4.5%
Structure (SMILES): CO[C@]1(CN2CCN3CCCC[C@@H]3C2)/C=C/C[C@H](C)[C@@H](C)S(=O)(=O)NC(=O)c2ccc3c(c2)N(C[C@@H]2CC[C@H]21)C[C@@]1(CCCc2cc(Cl)ccc21)CO3 [anhydrous form 4]

Reference: patent publication US20250115622A1, “Crystalline Forms Of An MCL-1 Inhibitor” (AMGEN INC., priority 2022, published 2025)
